# In US10117431B2, “Compounds and methods for improving plant performance” (Los Alamos National Security, LLC, priority 2013, dated 2018):
# How the values were obtained:
# Type in all cases: in vivo
# [1] = tested on: Alfalfa (variety Ladak) seeds; assay: Germination of treated alfalfa seeds on moist paper toweling; conditions: 3 days after initiation of germination, 65-75° F., control untreated 80%
# Procedure: The desired treatment concentration of ketosuccinamate was added to an aqueous solution of 0.01% Tween 80 and the pH was set to neutral with KOH. The seeds were dipped in the solution to wet them and allowed to air dry before planting, a process that required less than 15 min. Alfalfa (variety Ladak) 3 days after initiation of germination on moist paper toweling at 65-75° F. the following percent germination was observed. Control untreated seeds: 80%, seeds treated with 0.1 mM ketosuccinamate: 88% and seeds treated with 1 mM ketosuccinamate: 93%. At least 30 seeds were used in each set.
# [2] = tested on: Soybean (variety Viking) seeds; assay: Germination of treated soybean seeds on moist paper toweling; conditions: 10 mM seed treatment, 75-85° F.
# Procedure: The desired treatment concentration of ketosuccinamate was added to an aqueous solution of 0.01% Tween 80 and the pH was set to neutral with KOH. The seeds were dipped in the solution to wet them and allowed to air dry before planting, a process that required less than 15 min. Soybean (variety Viking) 22 hr after treatment and initiation of germination on moist paper toweling at 75-85° F. the following germination was observed. 2 of the 20 controls had broken through the pericarp whereas 9 of the 20 ketosuccinamate (10 mM) treated seeds had broken through the pericarp. 24 hours after treatment 6 of the 20 controls had broken the pericarp and 12 of the 20 ketosuccinamate-treated seeds had broken the pericarp.
# [3] = tested on: Soybeans (Variety Viking); assay: Greenhouse seedling emergence, soybean; conditions: 1 mM seed treatment, 3 days after planting, controls 12 of 20
# Procedure: The desired treatment concentration of ketosuccinamate was added to an aqueous solution of 0.01% Tween 80 and the pH was set to neutral with KOH. The seeds were dipped in the solution to wet them and allowed to air dry before planting, a process that required less than 15 min. Seeds were planted in vermiculite, sand, peat moss (1:1:1) in the greenhouse and the seedling emergence was tracked. The moisture in the germination/growth substrate as maintained between 15-20% of saturation. The temperature in the house ranged from 72-82° F. Bradyrhizobium japonicum (commercial innoculum) was mixed into the substrate before planting. 3 days after planting the following seedling emergence was observed. Controls 12 of 20 had emerged from the soil. Ketosuccinamate (1 mM) treated 16 of 20 had emerged.
# Alfalfa (Variety Ladak) = assay: Greenhouse seedling emergence, alfalfa; conditions: 1 mM seed treatment, 3 days after planting, control 58%
# Procedure: The desired treatment concentration of ketosuccinamate was added to an aqueous solution of 0.01% Tween 80 and the pH was set to neutral with KOH. The seeds were dipped in the solution to wet them and allowed to air dry before planting, a process that required less than 15 min. Seeds were planted in vermiculite, sand, peat moss (1:1:2) in the greenhouse and the seedling emergence was tracked. The temperature in the house ranged from 72-82° F. Sinorhizobium meliloti inoculum (commercial innoculum) was mixed into the substrate before planting. 3 days after planting, the following seedling emergence was observed. Control 58%; Ketosuccinamate (1 mM) treated 79%.
smiles,measurement,setting,value
"NC(=O)CC(=O)C(=O)O [ketosuccinamate, 4-amino-2,4-dioxobutanoic acid]",percent germination,[1]; seeds treated with 0.1 mM,88%
same,percent germination,[1]; seeds treated with 1 mM,93%
same,number of the 20 treated seeds that had broken through the pericarp,"[2]; 22 hr after treatment, controls 2 of the 20",9
same,number of the 20 treated seeds that had broken the pericarp,"[2]; 24 hours after treatment, controls 6 of the 20",12
same,"seedling emergence, number of 20 that had emerged from the soil",[3],16
same,seedling emergence,Alfalfa (Variety Ladak),79%
